This assay in a line: Effect on lysosomal activation in mouse splenocytes at 100 ug/mL relative to control. The assay is classed as functional.

As to `CC(=O)OC[C@@]1(C)CCC[C@]2(C)[C@H]3CCc4cocc4[C@]3(C)CC[C@@H]12`, the Activity was determined as 130%.
In turn, `CC(=O)OC[C@]1(C)[C@@H]2CC[C@@]3(C)c4cocc4CC[C@@H]3[C@@]2(C)CC[C@@H]1OC(C)=O` yielded an Activity of 130%.

These data come from ChEMBL document CHEMBL1145422, “Spongian diterpenoids from the sponge Spongia (Heterofibria) sp” (2007).
